Experimental data as given in patent US20260151451A1, “CYCLIC PEPTIDE DERIVATIVE COMPOSITION FOR TREATING OR PREVENTING CENTRAL NERVOUS SYSTEM INJURY/DISEASE” (DKS Co. Ltd., priority 2022, published 2026).
Where “and” joins values, the source holds several entries; their conditions need not be identical. Equal entries are not always repeated. Entries after “also recorded” stand apart in the source; their conditions may differ.

Columns and labels:
[1] = tested on: transient focal cerebral ischemia model rat; assay: Cerebral infarct volume in transient focal cerebral ischemia (MCA occlusion/recanalization) model rat; type: in vivo; settings: for Cerebral infarct volume compared with the vehicle group: Dunnett's multiple comparison test; for Cerebral infarct volume: group mean ± S.E., n=10, brain extracted 24 hours after MCA occlusion
Description: (§1) The rat was fixed in a supine position under 2% isoflurane inhalation anesthesia (Lot No.: 248KKY, Viatris Pharmaceutical Co., Ltd., laughing gas:oxygen=7:3). A thermometer probe connected to a digital thermometer (TX1002, Yokogawa Meters & Instruments Corporation) was inserted into the rectum to perform thermoregulation during surgery, and changes in rectal temperature before and after surgery were monitored. As a result, since a decrease in rectal temperature was not observed in any rat, heating was not performed. The right common carotid artery, external carotid artery, and internal carotid artery were exposed, and the common carotid artery and external carotid artery were ligated with sutures. A nylon yarn (plug) No. 4 previously coated with silicon (Kulzer Japan Co., Ltd.) and cut to a length of 19 mm was inserted from the bifurcation of the external carotid artery and the internal carotid artery to occlude the right MCA. After MCA occlusion, the neck skin was sutured and released from anesthesia. Flexion of the contralateral forelimb on the occluded side was confirmed 30 minutes after MCA occlusion. Under 2% isoflurane inhalation anesthesia, the right common carotid artery, the right external carotid artery, and the right internal carotid artery were exposed again, the plug was removed 2 hours after MCA occlusion, and the blood flow of the right MCA was resumed. After the blood flow of the right MCA was resumed, ligation of the right internal carotid artery and suturing of the neck skin were performed to awaken the animal from anesthesia. Note that benzylpenicillin potassium (Lot No.: 00904, Meiji Seika Pharma Co., Ltd.) was administered intramuscularly at a dosage of 20,000 units/kg before the MCA occlusion surgery.
24 hours after MCA occlusion, the animal was decapitated under 2% isoflurane inhalation anesthesia (Lot No.: 248KKY, Viatris Pharmaceutical Co., Ltd., laughing gas:oxygen=7:3), and the whole brain was extracted to prepare a brain section having a thickness of 2 mm. Referring to Paxinos and Watson brain atlas [Paxinos G. and Watson C. The rat brain in stereotaxic coordinates, second edition. San Diego, New York, Boston, London, Sydney, Tokyo, Toronto: Academic Press Inc.; 1986.], the brain sections were set at positions where coronal planes of 4 mm anterior to Bregma, 2 mm anterior to Bregma, above Bregma, 2 mm posterior to Bregma, 4 mm posterior to Bregma, and 6 mm posterior to Bregma were obtained. The brain sections were immersed in a 1% (W/V) 2,3,5-triphenyltetrazolium chloride (Lot No.: M7B5587, Nacalai Tesque Inc.) solution at room temperature, stained, and photographed. From the obtained photograph, brain sections (infarction site and non-infarction site) were traced on an OHP sheet. The traced image was captured by a scanner (Seiko Epson Corporation), image analysis was performed using WinROOF2015 (MITANI CORPORATION), a cerebral infarct area was obtained as a measured value, and a cerebral infarct volume between 4 mm anterior to Bregma and 6 mm posterior to Bregma was calculated from the obtained value.
[formula] • V: Cerebral infarct volume • a: Cerebral infarct area on section of 4 mm anterior to Bregma • b: Cerebral infarct area on section of 2 mm anterior to Bregma • c: Cerebral infarct area on section of Bregma • d: Cerebral infarct area on section of 2 mm posterior to Bregma • e: Cerebral infarct area on section of 4 mm posterior to Bregma • f: Cerebral infarct area on section of 6 mm posterior to Bregma
• Calculation of cerebral infarct volume (mm^3)
The employed data were expressed as a mean±standard error.
The following combinations were performed.

[2] = tested on: transient focal cerebral ischemia model rat; assay: Cerebral infarct volume in transient focal cerebral ischemia model rat (Example 33; test substance given immediately after MCA recanalization); type: in vivo; settings: for Cerebral infarct volume (mm^3): tail vein, brain extracted 24 hours after MCA occlusion, mean ± S.E. of 10 rats; for Individual data of the cerebral infarct volume (mm^3): individual animals
Method: The activity of the compound of the present disclosure was evaluated according to the following procedure.
Compound 9 (aqueous solution (50 mg/mL) prepared by dissolving a white powder in a saturated NaHCO3 solution)
Edaravone (trade name: Radicut (registered trademark) Mitsubishi Tanabe Pharma Corporation) Vehicle
Japanese Pharmacopoeia physiological saline (hereinafter, physiological saline) (Otsuka Pharmaceutical Factory, Inc.)
Rat (strain: Crl: CD (SD)) (THE JACKSON LABORATORY JAPAN, INC.)
• Intravenous administration
Using a syringe (1 mL, Terumo Corporation) equipped with an injection needle (25G×5/8, Terumo Corporation), tail vein administration was performed immediately after MCA recanalization.
Using a syringe (1 mL, Terumo Corporation) equipped with an injection needle (25G×5/8, Terumo Corporation), tail vein administration was performed immediately after MCA recanalization and 30 minutes after MCA recanalization (actual result: ±0 minutes from the specified time, allowable range: ±3 minutes from the specified time).
• 0.2 mg/kg and 2 mg/kg
• (1) The received test substance was thawed and then divided into 4 brown glass bottles by 0.1 mL. • (2) The test substances divided into small portions were stored frozen (measured value: −24.4 to −22.6° C., allowable range: −35 to −10° C.) until use in preparation. • (3) One test substance divided into small portions for each day of administration was thawed, and 4.9 mL of physiological saline was added to prepare a 1 mg/mL administration solution . . . I • (4) From I, 0.5 mL was dispensed into a brown glass bottle, and 4.5 mL of physiological saline was added to prepare a 0.1 mg/mL administration solution. • (5) It was prepared before use. • (6) The remainder after administration was discarded.
as §1, with “234KAP, Mylan Inc.,” for “248KKY, Viatris Pharmaceutical Co., Ltd.,”
24 hours after MCA occlusion, the animal was decapitated under 2% isoflurane inhalation anesthesia (Lot No.: 234KAP, Mylan Inc., laughing gas:oxygen=7:3), and the whole brain was extracted to prepare a brain section having a thickness of 2 mm. Referring to Paxinos and Watson brain atlas [axinos G. and Watson C. The rat brain in stereotaxic coordinates, second edition. […]

Row | SMILES | Cerebral infarct volume compared with the vehicle group ([1]; administered 30 minutes after MCA recanalization) | Cerebral infarct volume compared with the vehicle group ([1]; administered 1 hour after MCA recanalization, p value=0.0525) | Cerebral infarct volume ([1]; 2 mg/kg administered 30 minutes after MCA reperfusion) | Cerebral infarct volume ([1]; 2 mg/kg administered 1 hour after MCA reperfusion) | Cerebral infarct volume, individual data ([1]; individual animals Nos. 202-214, administered 30 minutes after MCA reperfusion) | Cerebral infarct volume, individual data ([1]; individual animals Nos. 301-314, second Compound 9 group (head prints 30 minutes after MCA reperfusion; mean matches the 1 hour group)) | Cerebral infarct volume (mm^3) ([2]; Compound 9 0.2 mg/kg, immediately after MCA recanalization, 2 hours MCA occlusion, 0.2 mg/kg) | Statistical difference of cerebral infarct volume from the vehicle group (Dunnett's multiple comparison test) ([2]; Compound 9 2 mg/kg i.v.) | Cerebral infarct volume (mm^3) ([2]; Compound 9 2 mg/kg, immediately after MCA recanalization, 2 hours MCA occlusion, 2 mg/kg) | Cerebral infarct reduction action: cerebral infarct volume compared with the vehicle group ([2]; Compound 9 groups, 0.2 mg/kg and 2 mg/kg i.v.) | Individual data of the cerebral infarct volume (mm^3) ([2]; Compound 9 0.2 mg/kg group (n = 10), 0.2 mg/kg) | Individual data of the cerebral infarct volume (mm^3) ([2]; Compound 9 2 mg/kg group (n = 10), 2 mg/kg) | Cerebral infarct volume ([1]; Edaravone group 3 mg/kg) | Cerebral infarct volume, individual data ([1]; individual animals Nos. 401-414, Edaravone group) | Cerebral infarct volume compared with the vehicle group (Student's t-test) ([2]; Edaravone 3 mg/kg per dose i.v., twice) | Cerebral infarct volume (mm^3) ([2]; Edaravone 3 mg/kg per dose, immediately after and 30 minutes after MCA recanalization) | Individual data of the cerebral infarct volume (mm^3) ([2]; Edaravone 3 mg/kg per dose group (n = 10))
1 | CC[C@@]1(C)Oc2cc(ccc2O)C[C@H](NC)C(=O)N[C@@H](C(C)C)C(=O)N[C@@H]1C(=O)N[C@@H](CC(=O)O)C(=O)O [Compound 9] | ameliorating effect on cerebral infarct | improvement tendency | 250.0±20.5 mm^3 and 250.0 ± 20.5 * mm^3 and 250.0 mm^3 | 260.4±13.9 mm^3 and 260.4 mm^3 | 254.3 mm^3 and 319.8 mm^3 and 274.6 mm^3 and 210.2 mm^3 and 133.9 mm^3 and 192.3 mm^3 and 272.2 mm^3 and 296.0 mm^3 and 201.4 mm^3 and 345.5 mm^3 | 253.1 mm^3 and 243.0 mm^3 and 355.2 mm^3 and 220.7 mm^3 and 261.4 mm^3 and 250.7 mm^3 and 192.0 mm^3 and 256.3 mm^3 and 272.3 mm^3 and 299.0 mm^3 | 336.9±14.2 mm^3 and 336.9 mm^3 | a statistically significant difference was observed in the 2 mg/kg group | 301.8±12.8 mm^3 and 301.8 ± 12.8 ^** mm^3 and 301.8 mm^3 | all showed low values; also recorded: has an ameliorating effect on cerebral infarct after cerebrovascular disorder | 341.9 mm^3 and 350.2 mm^3 and 331.8 mm^3 and 366.5 mm^3 and 372.7 mm^3 and 219.1 mm^3 and 318.3 mm^3 and 339.3 mm^3 and 369.8 mm^3 and 359.8 mm^3 | 264.4 mm^3 and 343.3 mm^3 and 342.4 mm^3 and 374.1 mm^3 and 279.7 mm^3 and 273.1 mm^3 and 293.4 mm^3 and 251.2 mm^3 and 316.6 mm^3 and 279.6 mm^3 | – | – | – | – | –
2 | CC1=NN(c2ccccc2)C(=O)C1 [Edaravone, reference compound] | – | – | – | – | – | – | – | – | – | – | – | – | 232.2±14.6 mm^3 and 232.2 ± 14.6 ^## mm^3 and 232.2 mm^3 | 140.7 mm^3 and 218.3 mm^3 and 221.0 mm^3 and 170.0 mm^3 and 231.1 mm^3 and 268.2 mm^3 and 268.9 mm^3 and 278.6 mm^3 and 268.4 mm^3 and 257.0 mm^3 | showed low values, and a statistically significant difference was observed; also recorded: showed a lower value than that of the vehicle group, and a statistically significant difference was observed | 292.8±14.2 mm^3 and 292.8 ± 14.2 ^## mm^3 and 292.8 mm^3 | 248.4 mm^3 and 324.8 mm^3 and 282.1 mm^3 and 375.0 mm^3 and 308.0 mm^3 and 319.8 mm^3 and 217.2 mm^3 and 299.1 mm^3 and 253.8 mm^3
